Results: patent publication US9125416B2, “Pesticidal mixtures” (BASF SE, priority 2010, dated 2015)

Experiments:
Assay type in all cases: in vivo
[1] = tested on: vetch aphid (Megoura viciae); test: Test 1: Control of Vetch Aphid, broad bean leaf disks in 24-well-microtiter plates; details: sprayed on leaf disks, aphid mortality and fecundity after 5 days
[2] = tested on: green peach aphid (Myzus persicae); test: Test 2: Control of Green Peach Aphid, liquid artificial diet under artificial membrane, 96-well-microtiter plates; details: aphid mortality and fecundity after 3 days
[3] = tested on: boll weevil (Anthonomus grandis); test: Test 3: Control of Boll Weevil, insect diet with A. grandis eggs, 24-well-microtiter plates; details: sprayed onto insect diet, egg and larval mortality after 5 days

With `Cc1c(COC(=O)[C@@H]2[C@H](/C=C(\Cl)C(F)(F)F)C2(C)C)cccc1-c1ccccc1` (racemic) [Bifenthrin, bifenthrin] the “Oberved Control average” value ([1]; 2 ppm) was 0% and the “Oberved Control average” value ([2]; 0.08 ppm in aphid diet) was 0%.

In the case of `C[C@]1(COC(=O)C2CC2)[C@@H]2C[C@H](O)[C@@]3(C)Oc4cc(-c5cccnc5)oc(=O)c4[C@H](O)[C@@H]3[C@@]2(C)CC[C@@H]1OC(=O)C1CC1` [Compound I, [(3S,4R,4aR,6S,6aS,12R,12aS,12bS)-3-(cyclopropanecarbonyloxy)-6,12-dihydroxy-4,6a,12b-trimethyl-11-oxo-9-(pyridin-3-yl)-1,2,3,4,4a,5,6,6a,12a,12b-decahydro-11H,12H-benzo[f]pyrano[4,3-b]chromen-4-yl]methyl cyclopropanecarboxylate], the “Oberved Control average” value ([1]; 0.004 ppm) is reported as 25%, the “Oberved Control average” value ([3]; 0.02 ppm) is reported as 0% and the “Oberved Control average” value ([2]; 0.004 ppm in aphid diet) is reported as 0%.

In the case of `O=C1C=C(N(CCF)Cc2ccc(Cl)nc2)CO1` [Compound M26.4, 4-{[(6-chloropyrid-3-yl)methyl](2-fluoroethyl)amino}furan-2(5H)-on], the “Oberved Control average” value ([3]; 2 ppm) is reported as 0%.

For abamectin, the “Oberved Control average” value ([2]; 0.016 ppm in aphid diet) was 0%.
